For assay [1], the target named is GMP synthase [glutamine-hydrolyzing] (Homo sapiens, UniProt P49915).
Description: Inhibition of human GMP synthase
In assay [2] the target is T1, Purine nucleoside phosphorylase (Homo sapiens, UniProt P00491).
T1 sequence (P00491 whole entry): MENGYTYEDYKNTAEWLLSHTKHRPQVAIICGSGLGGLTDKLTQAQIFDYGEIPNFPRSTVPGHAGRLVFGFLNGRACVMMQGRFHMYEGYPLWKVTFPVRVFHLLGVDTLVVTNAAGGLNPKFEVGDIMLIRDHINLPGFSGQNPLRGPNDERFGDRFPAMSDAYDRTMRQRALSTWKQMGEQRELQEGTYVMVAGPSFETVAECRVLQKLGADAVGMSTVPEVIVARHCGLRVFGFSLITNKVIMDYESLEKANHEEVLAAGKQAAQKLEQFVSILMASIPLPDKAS
Nature of the assay: Inhibition of human PNP expressed in Escherichia coli assessed as reduction in uric acid formation by spectrophotometric method.

For assay [3], the system named is Plasmodium falciparum. Nature of the assay: microbe, parasite or virus in culture. Particulars: 3D7.
Description: Antimalarial activity against Plasmodium falciparum 3D7 infected in human erythrocytes assessed as reduction in [3H]ethanolamine incorporation incubated for 18 hrs followed by addition of [3H]ethanolamine and measured after 48 hrs by scintillation counting method
The test system of assay [4] is Plasmodium falciparum. Nature of the assay: Antimalarial activity against synchronized Plasmodium falciparum ring stage form assessed as reduction in [2,8-3H]Hypoxanthine incorporation incubated for 48 hrs followed by addition of [2,8-3H]Hypoxanthine and measured after 24 hrs by liquid scintillation counting method. Format: functional, organism-based.
Assay [5] is described as follows: Inhibition of Plasmodium falciparum HGXPRT expressed in Escherichia coli BL21 (DE3) assessed as inhibitor constant for enzyme-inhibitor-substrate complex formation using [5'-14C]IMP as substrate by scintillation counting method.
Assay [6] deals with T2, Hypoxanthine-guanine phosphoribosyltransferase (Homo sapiens, UniProt P00492).
T2 sequence (P00492 whole entry): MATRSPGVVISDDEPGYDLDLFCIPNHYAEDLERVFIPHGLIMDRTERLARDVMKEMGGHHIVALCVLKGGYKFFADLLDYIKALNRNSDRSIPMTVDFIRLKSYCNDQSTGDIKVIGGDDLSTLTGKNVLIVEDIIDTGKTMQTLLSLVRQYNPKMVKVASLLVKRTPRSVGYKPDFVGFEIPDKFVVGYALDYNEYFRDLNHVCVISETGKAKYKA
Nature of the assay: Inhibition of human HGPRT assessed as inhibitor constant for enzyme-inhibitor complex formation using [5'-14C]IMP as substrate by scintillation counting method.

For assay [7], the target named is T3, Purine nucleoside phosphorylase (Plasmodium falciparum, UniProt Q8T9Z7).
T3 sequence (Q8T9Z7 whole entry): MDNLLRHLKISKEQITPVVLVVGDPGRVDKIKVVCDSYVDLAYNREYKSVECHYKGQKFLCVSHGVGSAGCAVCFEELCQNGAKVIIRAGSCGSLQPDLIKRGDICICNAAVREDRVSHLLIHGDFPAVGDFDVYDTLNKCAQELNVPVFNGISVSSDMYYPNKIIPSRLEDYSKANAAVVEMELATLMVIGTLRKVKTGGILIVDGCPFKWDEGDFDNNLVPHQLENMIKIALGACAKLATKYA
Description: Inhibition of Plasmodium falciparum His-tagged PNP assessed as inhibitor constant for enzyme-inhibitor complex formation

In assay [8] the target is T3, Purine nucleoside phosphorylase. The source holds these as a separate data set.
Description: Inhibition of Plasmodium falciparum His-tagged PNP assessed as inhibitor constant for enzyme-inhibitor-substrate complex formation
The target of assay [9] is T1, Purine nucleoside phosphorylase.
Description: Inhibition of human PNP assessed as inhibitor constant for enzyme-inhibitor complex formation
For assay [10] the target is unchanged. This is another data set of the same source.
Description: Inhibition of human PNP assessed as inhibitor constant for enzyme-inhibitor-substrate complex formation
Assay [11] concerns the target T4, GMP synthase [glutamine-hydrolyzing] (Plasmodium falciparum) (UniProt Q8IJR9).
T4 sequence (whole entry): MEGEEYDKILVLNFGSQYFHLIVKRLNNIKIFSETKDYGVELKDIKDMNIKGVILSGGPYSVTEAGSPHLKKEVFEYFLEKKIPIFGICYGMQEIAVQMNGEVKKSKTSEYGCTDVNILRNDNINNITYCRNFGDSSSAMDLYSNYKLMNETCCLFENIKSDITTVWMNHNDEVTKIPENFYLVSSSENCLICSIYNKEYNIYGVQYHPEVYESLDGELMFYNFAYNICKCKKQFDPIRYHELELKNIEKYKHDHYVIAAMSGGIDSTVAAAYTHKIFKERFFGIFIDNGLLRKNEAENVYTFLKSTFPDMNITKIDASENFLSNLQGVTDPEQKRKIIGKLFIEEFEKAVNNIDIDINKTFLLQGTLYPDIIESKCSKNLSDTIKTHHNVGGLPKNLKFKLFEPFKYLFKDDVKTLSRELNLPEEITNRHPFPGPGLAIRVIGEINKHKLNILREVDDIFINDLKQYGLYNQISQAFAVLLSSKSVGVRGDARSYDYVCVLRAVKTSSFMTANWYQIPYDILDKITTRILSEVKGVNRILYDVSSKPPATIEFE
Nature of the assay: Inhibition of Plasmodium falciparum N-terminal His-tagged GMP synthase expressed in Escherichia coli AT2465 assessed as reduction in NADH formation incubated at 0.5 mM for 20 mins by spectrophotometric analysis relative to control.

In assay [12] the test system is Plasmodium falciparum. Nature of the assay: Antimalarial activity against Plasmodium falciparum 3D7 assessed as reduction in parasite growth incubated for 48 hrs by Giemsa-staining counting based microscopic analysis. Format: functional, organism-based. Particulars: 3D7, 48 h.

GMP synthase [glutamine-hydrolyzing], sequence (P49915 whole entry): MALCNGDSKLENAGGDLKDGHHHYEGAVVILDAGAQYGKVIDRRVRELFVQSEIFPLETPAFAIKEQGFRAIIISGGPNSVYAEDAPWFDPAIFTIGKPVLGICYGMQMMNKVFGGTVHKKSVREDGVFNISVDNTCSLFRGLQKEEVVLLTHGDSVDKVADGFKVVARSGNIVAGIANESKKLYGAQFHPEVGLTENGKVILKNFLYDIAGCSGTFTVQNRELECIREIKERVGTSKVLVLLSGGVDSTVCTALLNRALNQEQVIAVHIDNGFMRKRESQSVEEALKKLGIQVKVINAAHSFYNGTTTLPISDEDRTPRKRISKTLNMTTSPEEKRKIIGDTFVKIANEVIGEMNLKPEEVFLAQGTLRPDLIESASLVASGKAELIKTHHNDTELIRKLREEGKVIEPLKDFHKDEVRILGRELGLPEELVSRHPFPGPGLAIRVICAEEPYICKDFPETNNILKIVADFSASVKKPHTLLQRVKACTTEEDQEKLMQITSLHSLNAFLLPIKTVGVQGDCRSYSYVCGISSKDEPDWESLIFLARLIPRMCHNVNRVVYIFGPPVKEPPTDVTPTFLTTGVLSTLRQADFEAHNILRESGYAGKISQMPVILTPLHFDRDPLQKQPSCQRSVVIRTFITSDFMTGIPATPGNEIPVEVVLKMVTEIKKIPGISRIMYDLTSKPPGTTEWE

`C=C1O[C@@](CO)(n2cnc3c(N)ncnc32)[C@H](O)[C@@H]1O` [DECOYININE] yielded an IC50 in [1] of 46500 nM.

On to `CSC[C@H]1N[C@@H](c2c[nH]c3c(=O)[nH]cnc23)[C@H](O)[C@@H]1O`, for which the inhibition constant Ki in assay [2] came out at 303 nM. In assay [3], this compound registered a 50% inhibitory concentration (IC50) of 50 nM.

Regarding `Nc1ncnc2c1c(I)cn2[C@@H]1O[C@H](CO)[C@@H](O)[C@H]1O` [IODOTUBERCIDIN], in assay [4], the 50% inhibitory concentration (IC50) is 2000 nM.

As to `Nc1nc2c([C@@H]3N[C@H](COP(=O)(O)O)[C@@H](O)[C@H]3O)c[nH]c2c(=O)[nH]1`, the inhibition constant Ki in [5] is 14 nM; in assay [6] it was 56 nM.

Turning to `O=c1[nH]cnc2c(CN3C[C@@H](CO)[C@H](O)C3)c[nH]c12`, the Ki came to 1.5 nM in [7], 0.68 nM in assay [8], 1700 nM in [9] and 80 nM in assay [10].

Consider `Nc1ncnc2c1ncn2[C@]1(CO)O[C@H](CO)[C@@H](O)[C@H]1O` [PSICOFURANINE], for which the inhibition in assay [11] was determined as 25%. Besides, the IC50 in assay [12] came to 300000 nM.

For the origin of these results see ChEMBL document CHEMBL4376805, “Plasmodium Purine Metabolism and Its Inhibition by Nucleoside and Nucleotide Analogues” (J Med Chem, 2019).
